In ChEMBL document CHEMBL4261514, “Interaction of indomethacin with calf thymus DNA: a multi-spectroscopic, thermodynamic and molecular modelling approach” (Medchemcomm, 2017):
Activity calls are given as the source filed them. The calls are words filed in the database; no cut-off is given here.

Legend:
Type in all cases: nucleic-acid assay
Settings in all cases: Bos taurus
Calf thymus DNA [1] = assay: Binding affinity to calf thymus DNA at 50 uM in presence of NaCl by fluorescence assay
Calf thymus DNA [2] = assay: Binding affinity to calf thymus DNA assessed as melting temperature at 50 uM by UV-visible spectroscopic method (reference value: 66.3 +/- 1 degC)
Calf thymus DNA [3] = assay: Inhibition of Hoechst 33258 binding to calf thymus DNA up to 70 uM by fluorescence assay
Calf thymus DNA [4] = assay: Binding affinity to calf thymus DNA assessed as conformational change up to 100 uM by circular dichroism spectral analysis
Calf thymus DNA [5] = assay: Binding affinity to calf thymus DNA assessed as change in viscosity at compound to DNA ratio of 0.2 to 1 by viscometry
Calf thymus DNA [6] = assay: Binding affinity to calf thymus DNA assessed as iodide quenching by measuring reduction in Stern-Volmer quenching constant at 50 uM by fluorescence assay relative to control; set-up: scale not given: the % may be the effect or the level left
Calf thymus DNA [7] = assay: Binding affinity to calf thymus DNA assessed as quenching constant at 50 uM at pH 7.2 by spectrofluorophotometric method
Calf thymus DNA [8] = assay: Binding affinity to calf thymus DNA assessed as Stern-Volmer quenching constant at 50 uM at pH 7.2 by spectrofluorophotometric method
Calf thymus DNA [9] = assay: Binding affinity to calf thymus DNA by isothermal calorimetric titration method
Calf thymus DNA [10] = assay: Inhibition of ethidium bromide binding to calf thymus DNA up to 80 uM by fluorescence assay
Calf thymus DNA [11] = assay: Binding affinity to calf thymus DNA by UV-visible spectrophotometric method
Calf thymus DNA [12] = assay: Inhibition of acridine orange binding to calf thymus DNA up to 80 uM by fluorescence assay
Calf thymus DNA [13] = assay: Binding affinity to calf thymus DNA assessed as hyperchromic shift at 281 nm at 50 uM by UV-visible spectrophotometric method

With `COc1ccc2c(c1)c(CC(=O)O)c(C)n2C(=O)c1ccc(Cl)cc1` the Activity (Calf thymus DNA [1]) was “inactive”, the Tm (Calf thymus DNA [2]) was 68.2 °C and the inhibition (Calf thymus DNA [3]) was “Active”. For the same compound, the Activity (Calf thymus DNA [4]) was “inactive”, the Activity (Calf thymus DNA [5]) was “inactive” and the Activity (Calf thymus DNA [6]) was 19%. For the same compound, the Kq (Calf thymus DNA [7]) was 1.1 ×10¹¹ L/mol/s, the KSV (Calf thymus DNA [8]) was 1.1 ×10³ L/mol and the K (Calf thymus DNA [9]) was 5.5 ×10³ /mol. The inhibition (Calf thymus DNA [10]) was “inactive”, the K (Calf thymus DNA [11]) was 9.6 ×10³ L/mol and the inhibition (Calf thymus DNA [12]) was “inactive”. For the same compound, the Activity (Calf thymus DNA [13]) was “Active”.
